ChEMBL document CHEMBL3580595, “Design, synthesis and biological evaluation of novel trimethylpyrazine-2-carbonyloxy-cinnamic acids as potent cardiovascular agents” (Medchemcomm, 2014)

Experiments:
[1] = Potency index, ratio of EC50 for lipoic acid to EC50 for test compound for cytoprotective activity against H2O2-induced cytotoxicity in human EAhy926 cells pre-incubated for 24 hrs before H2O2 challenge for 12 hrs by MTT assay; assay type: functional
[2] = Cytoprotective activity against H2O2-induced cytotoxicity in human EAhy926 cells at 12.5 uM pre-incubated for 24 hrs before H2O2 challenge for 12 hrs by MTT assay; assay type: functional, EA.hy 926
[3] = Anti-platelet activity in rabbit platelet-rich plasma assessed as inhibition of ADP-induced platelet aggregation at 25 uM incubated for 5 mins at 37 degC by aggregometry; assay type: functional; details: Oryctolagus cuniculus
[4] = Anti-platelet activity in rabbit platelet-rich plasma assessed as inhibition of ADP-induced platelet aggregation at 100 uM incubated for 5 mins at 37 degC by aggregometry; assay type: functional; details: Oryctolagus cuniculus
[5] = Anti-platelet activity in rabbit platelet-rich plasma assessed as inhibition of ADP-induced platelet aggregation at 50 uM incubated for 5 mins at 37 degC by aggregometry; assay type: functional; details: Oryctolagus cuniculus
[6] = Anti-platelet activity in rabbit platelet-rich plasma assessed as inhibition of ADP-induced platelet aggregation incubated for 5 mins at 37 degC by aggregometry; assay type: functional; details: Oryctolagus cuniculus
[7] = Cytoprotective activity against H2O2-induced cytotoxicity in human EAhy926 cells at 25 uM pre-incubated for 24 hrs before H2O2 challenge for 12 hrs by MTT assay; assay type: functional, EA.hy 926
[8] = Cytoprotective activity against H2O2-induced cytotoxicity in human EAhy926 cells at 50 uM pre-incubated for 24 hrs before H2O2 challenge for 12 hrs by MTT assay; assay type: functional, EA.hy 926
[9] = Cytoprotective activity against H2O2-induced cytotoxicity in human EAhy926 cells at 100 uM pre-incubated for 24 hrs before H2O2 challenge for 12 hrs by MTT assay; assay type: functional, EA.hy 926
[10] = Anti-platelet activity in rabbit platelet-rich plasma assessed as inhibition of ADP-induced platelet aggregation at 12.5 uM incubated for 5 mins at 37 degC by aggregometry; assay type: functional; details: Oryctolagus cuniculus
[11] = Cytoprotective activity against H2O2-induced cytotoxicity in human EAhy926 cells pre-incubated for 24 hrs before H2O2 challenge for 12 hrs by MTT assay; assay type: functional, cell-based; details: EA.hy 926

IC50 [6] [µM]	SMILES	Ratio EC50 [1]	Activity [2] [%]	inhibition at 25 µM [3] [%]	inhibition at 100 µM [4] [%]	inhibition at 50 µM [5] [%]	Activity [7] [%]	Activity [8] [%]	Activity [9] [%]	inhibition at 12.5 µM [10] [%]	EC50 [11] [µM]
77.4	CCOC(=O)/C=C/c1ccc(OC(=O)c2nc(C)c(C)nc2C)c(O)c1	40	75.7	36.4	58.4	37.9	207	210.8	375.3	22	1.7
265	Cc1nc(C)c(C)nc1C [LIGUSTRAZINE]	–	11.4	8.6	19.6	15.3	13.6	22.1	40.9	3.4	83.4
